Results: patent publication US20230295157A1, “3-(1H-IMIDAZOL-2-YL)-2,3,8,8A-TETRAHYDROINDOLIZIN-5(1H)-ONE DERIVATIVES USEFUL AS FACTOR XIA INHIBITORS” (JANSSEN PHARMACEUTICA NV, priority 2020, published 2023)
pIC50: −log10 of the molar value. Like-named read-outs stand apart in the source and are kept apart here.

How the values were obtained:
[1] = target: Factor XIa (Homo sapiens (Human), UniProt P03951); assay: Factor XIa inhibition assay (FLINT) utilizing a fluorophore-quencher pair peptide substrate; assay type: biochemical; settings: 30 min preincubation, kinetic reads over 30 min, read-out: FXIa Kin Inh IC50
Outline: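 FXIa ([…]) preincubated 30 min with compound (11-point 3-fold dilution, top 100 nM, 2% DMSO), then 15 μM quenched FXI Arg146-based peptide added; Tris pH 7.5, CaCl2, BSA, CHAPS. Fluorescence 485/520 nm read kinetically every 5 min over 30 min at RT; IC50 by 4-parameter fit.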

[2] = target: human plasma kallikrein (Homo sapiens (Human), UniProt P03952); assay: Kallikrein inhibition assay (FLINT) utilizing a quenched AMC peptide substrate; assay type: biochemical; settings: 30 min preincubation, kinetic reads over 30 min, Z-Gly-Pro-Arg-AMC substrate 50 μM; read-out: Kallikrein Kin Inh IC50
Outline: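 Fluorogenic Z-Gly-Pro-Arg-AMC cleavage (50 μM substrate, 2 nM kallikrein, Tris pH 7.5, CaCl2, BSA, CHAPS, 2% DMSO) read kinetically at 340/440 nm for 30 min after 30-min compound pre-incubation. Compounds in 11-point 3-fold series from 1 μM; percent inhibition fitted to four-parameter equation for IC50.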

[3] = 5Fam-KLTRAETV-K5Tamra substrate 15 μM
[4] = 5Fam-[…]-K5Tamra substrate 15 μM

Chain of Factor XIa (P03951 388-625): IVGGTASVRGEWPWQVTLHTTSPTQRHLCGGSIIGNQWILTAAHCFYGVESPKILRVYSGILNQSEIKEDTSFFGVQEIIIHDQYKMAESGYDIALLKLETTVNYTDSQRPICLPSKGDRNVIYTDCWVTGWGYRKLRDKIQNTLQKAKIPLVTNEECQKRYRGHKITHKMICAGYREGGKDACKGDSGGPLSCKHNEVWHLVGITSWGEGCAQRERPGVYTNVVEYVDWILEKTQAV
Chain of Factor XIa (P03951 19-387 partner): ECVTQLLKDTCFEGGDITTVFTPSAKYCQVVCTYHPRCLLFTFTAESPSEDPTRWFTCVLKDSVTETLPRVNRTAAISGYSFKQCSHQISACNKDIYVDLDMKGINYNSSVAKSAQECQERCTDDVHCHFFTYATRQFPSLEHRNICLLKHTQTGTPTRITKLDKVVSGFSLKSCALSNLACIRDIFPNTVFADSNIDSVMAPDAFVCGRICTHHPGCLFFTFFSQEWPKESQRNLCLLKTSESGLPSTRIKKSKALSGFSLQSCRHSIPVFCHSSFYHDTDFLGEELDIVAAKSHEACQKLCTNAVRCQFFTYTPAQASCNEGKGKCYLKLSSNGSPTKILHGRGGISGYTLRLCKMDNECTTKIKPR
Chain of human plasma kallikrein (P03952 391-638): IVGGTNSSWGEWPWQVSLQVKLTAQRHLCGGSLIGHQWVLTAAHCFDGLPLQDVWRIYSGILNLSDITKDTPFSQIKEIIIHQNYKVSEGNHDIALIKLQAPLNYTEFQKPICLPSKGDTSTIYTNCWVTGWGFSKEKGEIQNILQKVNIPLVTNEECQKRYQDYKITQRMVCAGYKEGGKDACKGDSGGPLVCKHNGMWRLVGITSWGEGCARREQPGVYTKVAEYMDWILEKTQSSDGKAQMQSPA
Chain of human plasma kallikrein (P03952 20-390 partner): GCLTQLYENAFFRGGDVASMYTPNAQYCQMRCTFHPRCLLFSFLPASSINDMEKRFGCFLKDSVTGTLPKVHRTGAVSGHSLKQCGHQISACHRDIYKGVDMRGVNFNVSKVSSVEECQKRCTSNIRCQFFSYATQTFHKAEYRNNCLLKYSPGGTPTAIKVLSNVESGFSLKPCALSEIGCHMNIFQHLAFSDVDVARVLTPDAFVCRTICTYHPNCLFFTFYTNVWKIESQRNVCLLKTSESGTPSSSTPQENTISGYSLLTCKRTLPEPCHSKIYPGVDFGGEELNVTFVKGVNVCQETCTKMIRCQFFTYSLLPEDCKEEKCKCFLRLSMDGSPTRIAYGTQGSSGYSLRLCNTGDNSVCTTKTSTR

SMILES | pIC50 [1, 3] | pIC50 [2] | pIC50 [1, 4]
O=C1C=C(c2cc(Cl)ccc2-n2cc(C(F)(F)F)nn2)C[C@H]2CC[C@@H](c3ncc(-c4ccnc(CO)c4F)[nH]3)N12 (relative stereo) [Example 64, (3S,8aR*)-7-(5-chloro-2-(4-(trifluoromethyl)-1H-1,2,3-triazol-1-yl)phenyl)-3-(5-(3-fluoro-2-(hydroxymethyl)pyridin-4-yl)-1H-imidazol-2-yl)-2 3,8,8a-tetrahydroindolizin-1H-one] | – | 6.81 | 7.94
O=C1C=C(c2c(-n3cnnn3)ccc(Cl)c2F)C[C@H]2CC[C@@H](c3nc(F)c(-c4ccnc(-c5ccn[nH]5)c4)[nH]3)N12 (single isomer, unassigned) [Example 31] | 9.15 | 8.74 | –
NC(=O)c1ccc(-c2c[nH]c([C@@H]3CC[C@@H]4CC(c5c(-n6cc(C(F)(F)F)nn6)ccc(Cl)c5F)=CC(=O)N43)n2)s1 [Example 220, 5-(2-((3S,8aR)-7-(3-Chloro-2-fluoro-6-(4-(trifluoromethyl)-1H-1,2,3-triazol-1-yl)phenyl)-5-oxo-1,2,3,5,8,8a-hexahydroindolizin-3-yl)-1H imidazol-4-yl)thiophene-2-carboxamide] | 8.30 | 8.01 | –
O=C(O)c1nccc(-c2[nH]c([C@@H]3CC[C@@H]4CC(c5c(-n6cc(C(F)(F)F)nn6)ccc(Cl)c5F)=CC(=O)N43)nc2F)c1F [Example 34, 4-(2-((3S,8aR)-7-(3-Chloro-2-fluoro-6-(4-(trifluoromethyl)-1H-1,2,3-triazol-1-yl)phenyl)-5-oxo-1,2,3,5,8,8a-hexahydroindolizin-3-yl)-4-fluoro-1H-imidazol-5-yl)-3-fluoropicolinic acid] | 9.22 | 7.48 | –
O=C(c1nccc(-c2cnc([C@@H]3CC[C@@H]4CC(c5c(-n6cnnn6)ccc(Cl)c5F)=CC(=O)N43)[nH]2)c1F)N1CC(F)(F)C1 [Example 94, (3S,8aR)-7-(3-Chloro-2-fluoro-6-(1H-tetrazol-1-yl)phenyl)-3-(5-(2-(3,3-difluoroazetidine-1-carbonyl)-3-fluoropyridin-4-yl)-1H-imidazol-2-yl)-2,3,8,8a-tetrahydroindolizin-5(1H)-one] | 7.91 | 6.92 | –
O=C1C=C(c2c(-n3cnnn3)ccc(Cl)c2F)C[C@@H]2CC[C@@H](c3ncc(-c4ccnc(N[C@H]5CCOC5)c4F)[nH]3)N12 (single isomer, unassigned) [Example 74, (3S,8aS*)-7-(3-chloro-2-fluoro-6-(1H-tetrazol-1-yl)phenyl)-3-(5-(3-fluoro-2-(((S)-tetrahydrofuran-3-yl)amino)pyridin-4-yl)-1H-imidazol-2-yl)-2,3,8,8a-tetrahydroindolizin-5(1H)-one] | – | 8.31 | 8.59
O=C1C=C(c2c(-n3cnnn3)ccc(Cl)c2F)C[C@H]2CC[C@H](c3ncc(-c4ccnc(-n5ccnn5)c4F)[nH]3)N12 (single isomer, unassigned) [Example 71, (3R*,8aR)-7-(3-chloro-2-fluoro-6-(1H-tetrazol-1-yl)phenyl)-3-(5-(3-fluoro-2-(1H-1,2,3-triazol-1-yl)pyridin-4-yl)-1H-imidazol-2-yl)-2,3,8,8a-tetrahydroindolizin-5(1H)-one] | – | 7.71 | 7.86
C[C@@H](O)c1nccc(-c2[nH]c([C@@H]3CC[C@@H]4CC(c5cc(Cl)ccc5-n5cnnn5)=CC(=O)N43)nc2F)c1F (relative stereo) [Example 45, (3S,8aR)-7-(5-chloro-2-(1H-tetrazol-1-yl)phenyl)-3-(4-fluoro-5-(3-fluoro-2-((R*)-1-hydroxyethyl)pyridin-4-yl)-1H-imidazol-2-yl)-2,3,8,8a-tetrahydroindolizin-5(1H)-one] | – | 7.38 | 8.36

The remaining lines, values ahead:

pIC50 [1, 3] | pIC50 [2] | pIC50 [1, 4] | SMILES
8.30 | 7.59 | – | COC(=O)Nc1ccc(-c2cnc([C@@H]3CC[C@@H]4CC(c5c(-n6cnnn6)ccc(Cl)c5F)=CC(=O)N43)[nH]2)nc1 [Example 316, Methyl (6-(2-((3S,8aR)-7-(3-chloro-2-fluoro-6-(1H-tetrazol-1-yl)phenyl)-5-oxo-1,2,3,5,8,8a-hexahydroindolizin-3-yl)-1H-imidazol-5-yl)pyridin-3-yl)carbamate]
8.66 | 7.77 | – | O=C1C=C(c2c(-n3cnnn3)ccc(Cl)c2F)C[C@H]2CC[C@@H](c3ncc(-c4ccnc(CO)c4F)[nH]3)N12 (single isomer, unassigned) [Example 194, (3*S,8a*R)-7-(3-chloro-2-fluoro-6-(1H-tetrazol-1-yl)phenyl)-3-(4-(3-fluoro-2-(hydroxymethyl-d2)pyridin-4-yl)-1H-imidazol-2-yl)-2,3,8,8a-tetrahydroindolizin-5(1H)-one]
– | 8.25 | 8.28 | Cn1c(=O)[nH]c2ccc(-c3cnc([C@@H]4CC[C@H]5CC(c6c(-n7cnnn7)ccc(Cl)c6F)=CC(=O)N54)[nH]3)cc21 (relative stereo) [Example 299, 6-(2-((3S,8aS*)-7-(3-Chloro-2-fluoro-6-(1H-tetrazol-1-yl)phenyl)-5-oxo-1,2,3,5,8,8a-hexahydroindolizin-3-yl)-1H-imidazol-5-yl)-1-methyl-1H-benzo[d]imidazol-2(3H)-one]
8.08 | 7.19 | – | O=C1C=C(c2c(-n3cnnn3)ccc(Cl)c2F)C[C@H]2CC[C@H](c3ncc(-c4ccnc(C5(O)CC5)c4F)[nH]3)N12 (single isomer, unassigned) [Example 116, (3*R,8aR)-7-(3-chloro-2-fluoro-6-(1H-tetrazol-1-yl)phenyl)-3-(5-(3-fluoro-2-(1-hydroxycyclopropyl)pyridin-4-yl)-1H-imidazol-2-yl-4-d)-2,3,8,8a-tetrahydroindolizin-5(1H)-one]
9.22 | 8.07 | – | [2H]c1cc(N)nc(F)c1-c1cnc([C@@H]2CC[C@@H]3CC(c4c(-n5cnnn5)ccc(Cl)c4F)=CC(=O)N32)[nH]1 [Example 150, (3S,8aR)-3-[5-(6-amino-4-deuterio-2-fluoro-3-pyridyl)-1H-imidazol-2-yl]-7-[3-chloro-2-fluoro-6-(tetrazol-1-yl)phenyl]-2,3,8,8a-tetrahydro-1H-indolizin-5-one]
9.15 | 8.21 | – | O=C1C=C(c2c(-n3cnnn3)ccc(Cl)c2F)C[C@H]2CC[C@@H](c3ncc(-c4ccnc5c4OCCO5)[nH]3)N12 [Example 361, (3S,8aR)-7-[3-chloro-2-fluoro-6-(tetrazol-1-yl)phenyl]-3-[5-(2,3-dihydro-[1,4]dioxino[2,3-b]pyridin-8-yl)-1H-imidazol-2-yl]-2,3,8,8a-tetrahydro-1H-indolizin-5-one]
– | 6.47 | 7.10 | O=C1C=C(c2c(-n3cnnn3)ccc(Cl)c2F)C[C@@H]2CC[C@@H](c3ncc(-c4cc[n+]([O-])cc4)[nH]3)N12 (relative stereo) [Example 321, 4-(2-((3S,8aS)-7-(3-Chloro-2-fluoro-6-(1H-tetrazol-1-yl)phenyl)-5-oxo-1,2,3,5,8,8a-hexahydroindolizin-3-yl)-1H-imidazol-5-yl)pyridine 1-oxide]
9.22 | 8.92 | – | COc1ccc(-c2c[nH]c([C@@H]3CCC4CC(c5c(-n6cnnn6)ccc(Cl)c5F)=CC(=O)N43)n2)c(NC(=O)C2CC2)c1 (stereo partly drawn) [Example 276, N-(2-(2-((3S)-7-(3-Chloro-2-fluoro-6-(1H-tetrazol-1-yl)phenyl)-5-oxo-1,2,3,5,8,8a-hexahydroindolizin-3-yl)-1H-imidazol-4-yl)-5-methoxyphenyl)cyclopropanecarboxamide]
< 7.00 | 6.10 | – | CNc1ncccc1-c1cnc([C@@H]2CC[C@H]3CC(c4c(-n5cnnn5)ccc(Cl)c4F)=CC(=O)N32)[nH]1 [Example 269, (3S,8aS)-7-[3-Chloro-2-fluoro-6-(tetrazol-1-yl)phenyl]-3-[5-[2-(methylamino)-3-pyridyl]-1H-imidazol-2-yl]-2,3,8,8a-tetrahydro-1H-indolizin-5-one]
7.17 | 6.54 | – | CCOC(=O)Nc1ccncc1-c1c[nH]c([C@@H]2CC[C@H]3CC(c4c(-n5cnnn5)ccc(Cl)c4F)=CC(=O)N32)n1 [Example 268, Ethyl N-[3-[2-[(3S,8aS)-7-[3-chloro-2-fluoro-6-(tetrazol-1-yl)phenyl]-5-oxo-2,3,8,8a-tetrahydro-1H-indolizin-3-yl]-1H-imidazol-4-yl]-4-pyridyl]carbamate]
9.30 | 8.14 | – | [2H][C@]12CC[C@@H](c3ncc(-c4ccc(N)nc4F)[nH]3)N1C(=O)C=C(c1c(-n3cnnn3)ccc(Cl)c1F)C2 [Example 146, (3S,8aR)-3-[5-(6-amino-2-fluoro-3-pyridyl)-1H-imidazol-2-yl]-7-[3-chloro-2-fluoro-6-(tetrazol-1-yl)phenyl]-8a-deuterio-1,2,3,8-tetrahydroindolizin-5-one]
9.30 | 8.89 | – | CC(C)C(=O)Nc1ccccc1-c1c[nH]c([C@@H]2CCC3CC(c4c(-n5cnnn5)ccc(Cl)c4F)=CC(=O)N32)n1 (stereo partly drawn) [Example 329, N-(2-(2-((3S)-7-(3-Chloro-2-fluoro-6-(1H-tetrazol-1-yl)phenyl)-5-oxo-1,2,3,5,8,8a-hexahydroindolizin-3-yl)-1H-imidazol-4-yl)phenyl)isobutyramide]
9.52 | 9.22 | – | O=C1C=C(c2c(-n3cnnn3)ccc(Cl)c2F)CC2CC[C@@H](c3ncc(-c4ccc5[nH]c(=O)[nH]c5c4)[nH]3)N12 (stereo partly drawn) [Example 312, 5-(2-((3S)-7-(3-Chloro-2-fluoro-6-(1H-tetrazol-1-yl)phenyl)-5-oxo-1,2,3,5,8,8a-hexahydroindolizin-3-yl)-1H-imidazol-5-yl)-1H-benzo[d]imidazol-2(3H)-one]
